Results from PMC10933438, “Inhibition of urease-mediated ammonia production by 2-octynohydroxamic acid in hepatic encephalopathy” (Nature Communications, 2024).

What was measured:
Jack bean urease [1] = target: T1, Jack bean urease (Canavalia ensiformis, UniProt P07374); assay: cell-free pH-based (phenol red) urease activity assay; delay of half-maximal absorbance at […] inhibitor (ΔT50); type: biochemical
Jack bean urease [2] = target: T1, Jack bean urease; assay: cell-free pH-based (phenol red) urease activity assay; ΔT50 at […] inhibitor; type: biochemical

T1 sequence (P07374 whole entry, looked up): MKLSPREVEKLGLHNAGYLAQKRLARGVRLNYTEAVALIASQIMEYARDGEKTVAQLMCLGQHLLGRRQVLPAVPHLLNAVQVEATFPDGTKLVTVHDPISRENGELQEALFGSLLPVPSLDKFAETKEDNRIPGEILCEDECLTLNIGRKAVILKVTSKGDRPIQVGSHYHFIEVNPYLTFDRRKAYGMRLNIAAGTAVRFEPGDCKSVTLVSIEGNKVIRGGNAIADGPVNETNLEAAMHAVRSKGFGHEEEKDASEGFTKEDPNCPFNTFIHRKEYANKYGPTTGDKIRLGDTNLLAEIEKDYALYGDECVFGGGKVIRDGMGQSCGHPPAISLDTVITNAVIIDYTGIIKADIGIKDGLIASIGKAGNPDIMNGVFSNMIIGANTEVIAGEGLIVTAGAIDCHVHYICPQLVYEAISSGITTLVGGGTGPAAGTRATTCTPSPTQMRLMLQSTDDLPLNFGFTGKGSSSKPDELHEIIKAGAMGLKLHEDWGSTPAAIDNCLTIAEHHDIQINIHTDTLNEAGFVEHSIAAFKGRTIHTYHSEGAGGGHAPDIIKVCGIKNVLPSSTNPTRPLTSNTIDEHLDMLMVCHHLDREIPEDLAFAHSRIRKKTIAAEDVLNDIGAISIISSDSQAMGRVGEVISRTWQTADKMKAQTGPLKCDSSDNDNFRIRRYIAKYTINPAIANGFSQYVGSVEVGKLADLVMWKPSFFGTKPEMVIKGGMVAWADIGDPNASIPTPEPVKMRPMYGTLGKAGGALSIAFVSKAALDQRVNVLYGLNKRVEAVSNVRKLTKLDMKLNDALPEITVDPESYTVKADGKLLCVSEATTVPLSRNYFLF

Row | Compound | cell-free pH-based (phenol red) urease activity assay; delay of half-maximal abs (Jack bean urease [1]) | cell-free pH-based (phenol red) urease activity assay; ΔT50 at 0.1 mM inhibitor (Jack bean urease [2])
1 | CCCCCC#CC(=O)NO [2-octynoHA, 2-octynohydroxamic acid] | 47.9 ± 2.6 min | 
2 | CC(=O)NO [AHA, acetohydroxamic acid] |  | 2.8 ± 0.6 min
3 | CCCCCCCC(=O)NO [OHA, octanohydroxamic acid] |  | 3.0 ± 1.6 min
